This assay concerns the target T1, human calcitonin receptor (hCTR2) (Homo sapiens, UniProt P30988).
T1 construct: expressed in transfected cells
T1 sequence (P30988 25-474): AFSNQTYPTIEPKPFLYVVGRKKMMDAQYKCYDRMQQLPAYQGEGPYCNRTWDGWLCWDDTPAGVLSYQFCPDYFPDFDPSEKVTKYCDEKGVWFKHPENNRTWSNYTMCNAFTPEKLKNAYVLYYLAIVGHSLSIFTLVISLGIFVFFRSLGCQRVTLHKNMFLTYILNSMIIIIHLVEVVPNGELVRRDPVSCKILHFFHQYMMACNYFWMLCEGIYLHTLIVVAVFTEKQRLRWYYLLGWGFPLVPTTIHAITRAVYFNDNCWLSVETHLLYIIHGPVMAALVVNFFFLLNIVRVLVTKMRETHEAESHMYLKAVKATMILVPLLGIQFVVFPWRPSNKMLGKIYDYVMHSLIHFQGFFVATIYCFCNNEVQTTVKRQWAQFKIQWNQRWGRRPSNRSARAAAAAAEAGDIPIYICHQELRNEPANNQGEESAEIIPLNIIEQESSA
The assay can be described thus: hCTR2 assay: induction of cAMP (AlphaScreen cAMP Assay kit) in COS7 cells expressing hCTR2. Format: cell-based. An outline of the steps:
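cAMP read-out by AlphaScreen after cell lysis; EC50 and % efficacy vs pramlintide from 4-parameter logistic fitting. Agonist stimulation: hCTR2-COS7 stable cells, 15 min, 37° C, 100 µM IBMX, 0.1% casein, Tyrode/HEPES pH 7.4.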
(In general: Alpha assays give light when donor and acceptor beads are brought close together.)

The mark [1] stands for this setting: cAMP induction in COS7 cells expressing hCTR2, average of a minimum of 3 determinations, read-out: hCTR2 EC50.

Like-named read-outs stand apart in the source and are kept apart here. Numbered stars: 1 amine (or outer) side, 2 acyl side, 3 side chain; on linkers, the order of the positions; unused ones are H or OH. Bridge positions count the residues as written; N and C are the ends. Square brackets hold non-standard residues; d marks the D form. Peptide text beside a SMILES is read from it. * marks the point of attachment. C20 diacid = O=C(O)CCCCCCCCCCCCCCCCCCC(=O)*; γGlu = O=C(O)[C@H](CCC(=O)[*:2])N[*:1]; NMeI = CC[C@H](C)[C@H](NC)C(=O)O; hArg = N=C(N)NCCCC[C@H](N)C(=O)O; Sar = CNCC(=O)O

As a reminder, the EC50 is the midpoint of the concentration-response curve.

On to `CC[C@H](C)[C@@H](C(=O)N[C@@H](CC(C)C)C(=O)N[C@H](CO)C(=O)N[C@@H](CO)C(=O)N[C@H](C(=O)N[C@@H](CC(N)=O)C(=O)N[C@H](C(=O)NCC(=O)N[C@@H](CO)C(=O)N[C@@H](CC(N)=O)C(=O)N[C@H](C(=O)N1CCC[C@H]1C(N)=O)[C@@H](C)O)C(C)C)[C@@H](C)O)N(C)C(=O)[C@H](C)NC(=O)CN(C)C(=O)[C@H](Cc1ccccc1)NC(=O)[C@H](CC(N)=O)NC(=O)[C@H](CC(N)=O)NC(=O)[C@H](CO)NC(=O)[C@H](CO)NC(=O)[C@H](Cc1c[nH]cn1)NC(=O)[C@H](Cc1c[nH]cn1)NC(=O)[C@H](CC(C)C)NC(=O)[C@H](Cc1ccccc1)NC(=O)[C@H](CCC(=O)O)NC(=O)[C@H](C)NC(=O)[C@H](CC(C)C)NC(=O)[C@H](CCCNC(=N)N)NC(=O)[C@H](CCC(N)=O)NC(=O)[C@@H](NC(=O)[C@H](C)NC(=O)[C@@H]1CSSC[C@H](NC(=O)[C@H](CCCNC(=N)N)NC(=O)CC[C@H](NC(=O)CCCCCCCCCCCCCCCCCCC(=O)O)C(=O)O)C(=O)N[C@@H](CC(N)=O)C(=O)N[C@@H]([C@@H](C)O)C(=O)N[C@@H](C)C(=O)N[C@@H]([C@@H](C)O)C(=O)N1)[C@@H](C)O` [Compound 23, [19CD]-isoGlu-RC()NTATC()ATQRLAEFLHHSSNNF-Gly(Me)-A-Ile(Me)-L-DSer-STNVGSNTP-NH2] ({C20 diacid-γGlu}-RCNTATCATQRLAEFLHHSSNNF[Sar]A[NMeI]L[dS]STNVGSNTP-NH2; disulfide 2-7), for which the EC50 came out at 0.074 nM.
In the case of `CC(C)C[C@H](NC(=O)[C@H](C)NC(=O)CN(C)C(=O)[C@H](Cc1ccccc1)NC(=O)[C@H](CC(N)=O)NC(=O)[C@H](CC(N)=O)NC(=O)[C@H](CO)NC(=O)[C@H](CO)NC(=O)[C@H](Cc1c[nH]cn1)NC(=O)[C@H](Cc1c[nH]cn1)NC(=O)[C@H](CC(C)C)NC(=O)[C@H](Cc1ccccc1)NC(=O)[C@H](CCC(=O)O)NC(=O)[C@H](C)NC(=O)[C@H](CC(C)C)NC(=O)[C@H](CCCNC(=N)N)NC(=O)[C@H](CCC(N)=O)NC(=O)[C@@H](NC(=O)[C@H](C)NC(=O)[C@@H]1CSSC[C@H](NC(=O)[C@H](CCCNC(=N)N)NC(=O)CC[C@H](NC(=O)CCCCCCCCCCCCCCCCCCC(=O)O)C(=O)O)C(=O)N[C@@H](CC(N)=O)C(=O)N[C@@H]([C@@H](C)O)C(=O)N[C@@H](C)C(=O)N[C@@H]([C@@H](C)O)C(=O)N1)[C@@H](C)O)C(=O)N[C@@H](CO)C(=O)N[C@@H](CO)C(=O)N[C@H](C(=O)N[C@@H](CC(N)=O)C(=O)N[C@H](C(=O)NCC(=O)N[C@@H](CO)C(=O)N[C@@H](CC(N)=O)C(=O)N[C@H](C(=O)N1CCC[C@H]1C(N)=O)[C@@H](C)O)C(C)C)[C@@H](C)O` [Compound 27, [19CD]-isoGlu-RC()NTATC()ATQRLAEFLHHSSNNF-Gly(Me)-ALSSTNVGSNTP-NH2] ({C20 diacid-γGlu}-RCNTATCATQRLAEFLHHSSNNF[Sar]ALSSTNVGSNTP-NH2; disulfide 2-7), the concentration giving a half-maximal response (EC50) under setting [1] is 0.14 nM.
Regarding `CC[C@H](C)[C@@H](C(=O)N[C@@H](CC(C)C)C(=O)N[C@@H](CO)C(=O)N[C@@H](CO)C(=O)N[C@H](C(=O)N[C@@H](CC(N)=O)C(=O)N[C@H](C(=O)NCC(=O)N[C@@H](CO)C(=O)N[C@@H](CC(N)=O)C(=O)N[C@H](C(=O)N1CCC[C@H]1C(N)=O)[C@@H](C)O)C(C)C)[C@@H](C)O)N(C)C(=O)CN(C)C(=O)[C@H](Cc1ccccc1)NC(=O)[C@H](CC(N)=O)NC(=O)[C@H](CC(N)=O)NC(=O)[C@H](CO)NC(=O)[C@@H](CO)NC(=O)[C@H](Cc1c[nH]cn1)NC(=O)[C@H](Cc1c[nH]cn1)NC(=O)[C@H](CC(C)C)NC(=O)[C@H](Cc1ccccc1)NC(=O)[C@H](CCC(=O)O)NC(=O)[C@H](C)NC(=O)[C@H](CC(C)C)NC(=O)[C@H](CCCNC(=N)N)NC(=O)[C@H](CCC(N)=O)NC(=O)[C@@H](NC(=O)[C@H](C)NC(=O)[C@@H]1CSSC[C@H](NC(=O)[C@H](CCCNC(=N)N)NC(=O)CC[C@H](NC(=O)CCCCCCCCCCCCCCCCCCC(=O)O)C(=O)O)C(=O)N[C@@H](CC(N)=O)C(=O)N[C@@H]([C@@H](C)O)C(=O)N[C@@H](C)C(=O)N[C@@H]([C@@H](C)O)C(=O)N1)[C@@H](C)O` [Compound 30, [19CD]-isoGlu-RC()NTATC()ATQRLAEFLHH-DSer-SNNF-Gly(Me)-Ile(Me)-LSSTNVGSNTP-NH2] ({C20 diacid-γGlu}-RCNTATCATQRLAEFLHH[dS]SNNF[Sar][NMeI]LSSTNVGSNTP-NH2; disulfide 2-7), under setting [1], the EC50 is 0.56 nM.
With `CC[C@H](C)[C@@H](C(=O)N[C@@H](CC(C)C)C(=O)N[C@@H](CO)C(=O)N[C@@H](CO)C(=O)N[C@H](C(=O)N[C@@H](CC(N)=O)C(=O)N[C@H](C(=O)NCC(=O)N[C@@H](CO)C(=O)N[C@@H](CC(N)=O)C(=O)N[C@H](C(=O)N1CCC[C@H]1C(N)=O)[C@@H](C)O)C(C)C)[C@@H](C)O)N(C)C(=O)CN(C)C(=O)[C@H](Cc1ccccc1)NC(=O)[C@H](CC(N)=O)NC(=O)[C@H](CC(N)=O)NC(=O)[C@@H](CO)NC(=O)[C@H](CO)NC(=O)[C@H](Cc1c[nH]cn1)NC(=O)[C@H](Cc1c[nH]cn1)NC(=O)[C@H](CC(C)C)NC(=O)[C@H](Cc1ccccc1)NC(=O)[C@H](CCC(=O)O)NC(=O)[C@H](C)NC(=O)[C@H](CC(C)C)NC(=O)[C@H](CCCNC(=N)N)NC(=O)[C@H](CCC(N)=O)NC(=O)[C@@H](NC(=O)[C@H](C)NC(=O)[C@@H]1CSSC[C@H](NC(=O)[C@H](CCCNC(=N)N)NC(=O)CC[C@H](NC(=O)CCCCCCCCCCCCCCCCCCC(=O)O)C(=O)O)C(=O)N[C@@H](CC(N)=O)C(=O)N[C@@H]([C@@H](C)O)C(=O)N[C@@H](C)C(=O)N[C@@H]([C@@H](C)O)C(=O)N1)[C@@H](C)O` [Compound 34, [19CD]-isoGlu-RC()NTATC()ATQRLAEFLHHS-DSer-NNF-Gly(Me)-Ile(Me)-LSSTNVGSNTP-NH2] ({C20 diacid-γGlu}-RCNTATCATQRLAEFLHHS[dS]NNF[Sar][NMeI]LSSTNVGSNTP-NH2; disulfide 2-7), the EC50 under setting [1] turned out to be 0.26 nM.
As for `CC[C@H](C)[C@@H](C(=O)N[C@@H](CC(C)C)C(=O)N[C@@H](CO)C(=O)N[C@@H](CO)C(=O)N[C@H](C(=O)N[C@@H](CC(N)=O)C(=O)N[C@H](C(=O)NCC(=O)N[C@@H](CO)C(=O)N[C@@H](CC(N)=O)C(=O)N[C@H](C(=O)N1CCC[C@H]1C(N)=O)[C@@H](C)O)C(C)C)[C@@H](C)O)N(C)C(=O)CN(C)C(=O)[C@H](Cc1ccccc1)NC(=O)[C@H](CC(N)=O)NC(=O)[C@@H](CC(N)=O)NC(=O)[C@H](CO)NC(=O)[C@H](CO)NC(=O)[C@H](Cc1c[nH]cn1)NC(=O)[C@H](Cc1c[nH]cn1)NC(=O)[C@H](CC(C)C)NC(=O)[C@H](Cc1ccccc1)NC(=O)[C@H](CCC(=O)O)NC(=O)[C@H](C)NC(=O)[C@H](CC(C)C)NC(=O)[C@H](CCCNC(=N)N)NC(=O)[C@H](CCC(N)=O)NC(=O)[C@@H](NC(=O)[C@H](C)NC(=O)[C@@H]1CSSC[C@H](NC(=O)[C@H](CCCNC(=N)N)NC(=O)CC[C@H](NC(=O)CCCCCCCCCCCCCCCCCCC(=O)O)C(=O)O)C(=O)N[C@@H](CC(N)=O)C(=O)N[C@@H]([C@@H](C)O)C(=O)N[C@@H](C)C(=O)N[C@@H]([C@@H](C)O)C(=O)N1)[C@@H](C)O` [Compound 35, [19CD]-isoGlu-RC()NTATC()ATQRLAEFLHHSS-DAsn-NF-Gly(Me)-Ile(Me)-LSSTNVGSNTP-NH2] ({C20 diacid-γGlu}-RCNTATCATQRLAEFLHHSS[dN]NF[Sar][NMeI]LSSTNVGSNTP-NH2; disulfide 2-7), the EC50 is 0.16 nM.
On to `CC[C@H](C)[C@@H](C(=O)N[C@@H](CC(C)C)C(=O)N[C@@H](CO)C(=O)N[C@@H](CO)C(=O)N[C@H](C(=O)N[C@@H](CC(N)=O)C(=O)N[C@H](C(=O)NCC(=O)N[C@@H](CO)C(=O)N[C@@H](CC(N)=O)C(=O)N[C@H](C(=O)N1CCC[C@H]1C(N)=O)[C@@H](C)O)C(C)C)[C@@H](C)O)N(C)C(=O)[C@H](C)NC(=O)CN(C)C(=O)[C@H](Cc1ccccc1)NC(=O)[C@H](CC(N)=O)NC(=O)[C@H](CC(N)=O)NC(=O)[C@H](CO)NC(=O)[C@H](CO)NC(=O)[C@H](Cc1c[nH]cn1)NC(=O)[C@H](Cc1c[nH]cn1)NC(=O)[C@H](CC(C)C)NC(=O)[C@H](Cc1ccccc1)NC(=O)[C@H](CCC(=O)O)NC(=O)[C@H](C)NC(=O)[C@H](CC(C)C)NC(=O)[C@H](CCCNC(=N)N)NC(=O)[C@H](CCC(N)=O)NC(=O)[C@@H](NC(=O)[C@H](C)NC(=O)[C@@H]1CSSC[C@H](NC(=O)[C@H](CCCCNC(=N)N)NC(=O)CC[C@H](NC(=O)CCCCCCCCCCCCCCCCCCC(=O)O)C(=O)O)C(=O)N[C@@H](CC(N)=O)C(=O)N[C@@H]([C@@H](C)O)C(=O)N[C@@H](C)C(=O)N[C@@H]([C@@H](C)O)C(=O)N1)[C@@H](C)O` [Compound 43, [19CD]-isoGlu-HarC()NTATC()ATQRLAEFLHHSSNNF-Gly(Me)-A-Ile(Me)-LSSTNVGSNTP-NH2] ({C20 diacid-γGlu}-[hArg]CNTATCATQRLAEFLHHSSNNF[Sar]A[NMeI]LSSTNVGSNTP-NH2; disulfide 2-7), for which the 50% effective concentration (EC50) was 0.1 nM.

(Values after EP3046573B1, “AMYLIN ANALOGUES” (Zealand Pharma A/S, priority 2013, dated 2015).)
